“And” between values parts separate entries of the source, which are not always exact repeats. Equal values may be shown once.
Experiments:
Botrytis cinerea [1] = experiment: Activity against Botrytis cinerea on bell peppers, green fruit disks (Use Example 2); type: in vivo
Botrytis cinerea [2] = experiment: Activity against Botrytis cinerea on bell pepper leaves (Use Example 1); conditions: in vivo

SMILES	Efficacy in % of the untreated control (Botrytis cinerea [1]; in vivo) [%]	Efficacy in % of the untreated control (Botrytis cinerea [2])	also measured
O=C(Nc1ccccc1-c1ccc(F)cc1)c1cccnc1Cl [Compound I.1]	0	–	–
O=C(Nc1ccccc1-c1ccc(Cl)cc1)c1cccnc1Cl [Compound I.2]	–	67% and 44%	–
N#Cc1c[nH]cc1-c1cccc2c1OC(F)(F)O2 [Compound IV, fludioxinil]	0	–	–
CN(C)S(=O)(=O)N(SC(F)(Cl)Cl)c1ccccc1 [Compound IXa, dichlofluanid]	–	0%	–
O=C1c2ccccc2C(=O)N1SC(Cl)(Cl)Cl [Compound VII, folpet]	0	0%	–
O=[N+]([O-])c1cc(C(F)(F)F)c(Cl)c([N+](=O)[O-])c1Nc1ncc(C(F)(F)F)cc1Cl [Compound VIII, fluazinam]	–	–	Efficacy in % of the untreated control (Botrytis cinerea [1]; 16 ppm active ingredient in the spray liquor, green bell pepper fruit disks, 4 days at 18° C.): 0%; Efficacy in % of the untreated control (Botrytis cinerea [1]; 31 ppm active ingredient in the spray liquor, green bell pepper fruit disks, 4 days at 18° C.): 0%
